{"source": "patent US20120003191A1", "about": "“VALPROIC ACID, DERIVATIVES, ANALOGUES, AND COMPOSITIONS INCLUDING SAME AND METHODS FOR THEIR THERAPEUTIC USE” (priority 2009, published 2012)", "key": {"mdx/utrn−/− mice": {"test_system": "mdx/utrn−/− mice", "assay": "Quantification of Evan's blue dye uptake in quadriceps", "type": "in vivo, mouse", "conditions": "240 mg/kg i.p. twice daily for 5 weeks", "protocol": "mdx/utrn−/− mice lack both dystrophin and utrophin, and were bred and genotyped as reported in Burkin, et al., Enhanced expression of the alpha 7 beta 1 integrin reduces muscular dystrophy and restores viability in dystrophic mice, J. Cell Biol. 152:1207-18 (2001). 240 mg/kg body weight of VPA was injected intraperitoneally twice daily into mdx/utrn^−/− mice (n=9) starting at 3 weeks of age, for a period of 5 weeks. Control mice were injected with saline (n=9). Body-weights were determined daily. On the 35th day of injection of VPA, mice were injected intraperitoneally with 100 mg/kg body weight of Evan's blue dye. After 24 hours, the quadriceps muscles were collected, frozen in liquid nitrogen-cooled isopentane and stored at −80° C. 8 μm cryosections of quadriceps were fixed in ice-cold methanol for 1 minute and washed in PBS three times for 5 minutes each. To delineate muscle fibers, the sections were incubated for 10 minutes at room temperature in FITC-conjugated wheat-germ agglutinin (WGA) (Invitrogen) diluted 1:500 in PBS. The sections were washed three times in PBS, 5 minutes each time, and the percentage of Evan's blue dye positive fibers in three sections taken 40 μm apart were counted (approximately 5000 fibers total) for each mouse."}, "ERK": {"test_system": "ERK", "assay": "Western blotting of activated ERK in α7+/− myotubes", "type": "cell-based, mouse", "conditions": "VPA treated myotubes", "protocol": "α7^+/− myogenic cells were cultured on 1% gelatin-coated plastic plates in Ham's F-10 growth medium (20% FBS, 0.5% chick embryo extract, 5 ng/ml bFGF, 2 mM glutamine, 100 U/ml penicillin and 100 μg/ml streptomycin). After six passages, cells were grown in DMEM containing 20% FBS, 0.5% chick embryo extract, 2 mM glutamine, 100 U/ml penicillin and 100 μg/ml streptomycin. Differentiation was induced by switching the medium to DMEM containing 2% horse serum and antibiotics when cells attained 90% confluence. After 48 hours of differentiation, 2 mM VPA was added and supplied fresh every 24 hours. Wortmannin was used at 100 nM and added fresh every 24 hours.\nCell lysates of differentiating cells on 60 mm dishes were prepared as follows: the cells were washed twice with PBS and 200 μl Triton X-100 lysis buffer (2% Triton X-100, 20 mM Tris-Cl, pH 7.4, 150 mM NaCl, 1 mM EDTA, 1 mM EGTA, 2.5 mM NaPPi, 1 mM β-glycerophosphate, 1 mM sodium vanadate, 1:200 Protease Inhibitor Cocktail (EMD Chemicals, San Diego, Calif.) and 1 mM PMSF) were added. […] Protein concentrations were determined by the Bradford assay. […] The supernatants were collected and protein concentrations were determined spectrophotometrically at OD260 and OD280. […] ImageQuant analysis software (Molecular Dynamics, Sunnyvale, Calif.) was used to quantify band intensity."}}}
{"compound": "CCCC(CCC)C(=O)O", "note": "[VPA, valproic acid]", "values": [{"measurement": "fewer damaged (Evans blue positive) fibers than saline", "setting": "mdx/utrn−/− mice", "result": "approximately 2 fold"}, {"measurement": "levels of activated ERK", "setting": "ERK", "result": "significantly lower levels"}]}
